Source: publication PMC7357868 (ACS chemical biology, 2019)

Key:
[1] = biological target: T1, hpol κ (Homo sapiens, UniProt Q9UBT6); assay: TAMRA strand-displacement fluorescence assay of DNA polymerase activity; type: biochemical
T1 sequence (Q9UBT6 19-526): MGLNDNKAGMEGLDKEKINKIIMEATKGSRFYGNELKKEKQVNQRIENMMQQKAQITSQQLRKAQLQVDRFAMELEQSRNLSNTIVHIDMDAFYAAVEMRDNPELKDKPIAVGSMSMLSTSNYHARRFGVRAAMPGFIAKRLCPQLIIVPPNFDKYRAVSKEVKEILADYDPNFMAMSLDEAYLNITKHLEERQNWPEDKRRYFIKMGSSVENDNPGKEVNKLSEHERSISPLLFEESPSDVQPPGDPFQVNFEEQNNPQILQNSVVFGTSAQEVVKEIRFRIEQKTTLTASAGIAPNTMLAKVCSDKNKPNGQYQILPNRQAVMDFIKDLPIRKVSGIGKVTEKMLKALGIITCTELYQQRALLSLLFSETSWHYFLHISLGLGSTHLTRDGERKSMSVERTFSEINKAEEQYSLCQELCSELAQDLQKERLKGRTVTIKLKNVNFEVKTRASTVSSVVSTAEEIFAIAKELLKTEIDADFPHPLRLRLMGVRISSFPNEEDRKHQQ

[2] = biological target: T2, hRev1 (Homo sapiens, UniProt Q9UBZ9); assay: Gel-based primer extension assay; type: biochemical; conditions: 10 μM IAG-10, 10 nM hRev1
T2 sequence (Q9UBZ9 330-833): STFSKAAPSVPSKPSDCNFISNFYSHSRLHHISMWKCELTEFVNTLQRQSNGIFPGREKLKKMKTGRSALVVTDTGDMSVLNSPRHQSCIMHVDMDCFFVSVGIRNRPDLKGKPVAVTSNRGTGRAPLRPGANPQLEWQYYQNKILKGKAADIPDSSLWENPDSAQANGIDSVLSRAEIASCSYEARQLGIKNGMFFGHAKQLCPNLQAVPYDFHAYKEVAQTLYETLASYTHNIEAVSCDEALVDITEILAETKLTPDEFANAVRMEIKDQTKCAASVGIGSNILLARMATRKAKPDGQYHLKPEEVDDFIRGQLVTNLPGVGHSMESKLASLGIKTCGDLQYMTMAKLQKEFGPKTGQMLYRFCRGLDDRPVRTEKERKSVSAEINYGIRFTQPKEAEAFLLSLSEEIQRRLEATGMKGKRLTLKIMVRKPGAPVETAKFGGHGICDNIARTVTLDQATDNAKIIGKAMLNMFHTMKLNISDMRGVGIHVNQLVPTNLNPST

[3] = biological target: T3, pol Dpo1 (Saccharolobus solfataricus, UniProt P26811); assay: TAMRA strand-displacement selectivity assay, B-family pol; type: biochemical, Sulfolobus solfataricus; conditions: 10 μM IAG-10, 25 nM Dpo1
T3 sequence (P26811 1-882): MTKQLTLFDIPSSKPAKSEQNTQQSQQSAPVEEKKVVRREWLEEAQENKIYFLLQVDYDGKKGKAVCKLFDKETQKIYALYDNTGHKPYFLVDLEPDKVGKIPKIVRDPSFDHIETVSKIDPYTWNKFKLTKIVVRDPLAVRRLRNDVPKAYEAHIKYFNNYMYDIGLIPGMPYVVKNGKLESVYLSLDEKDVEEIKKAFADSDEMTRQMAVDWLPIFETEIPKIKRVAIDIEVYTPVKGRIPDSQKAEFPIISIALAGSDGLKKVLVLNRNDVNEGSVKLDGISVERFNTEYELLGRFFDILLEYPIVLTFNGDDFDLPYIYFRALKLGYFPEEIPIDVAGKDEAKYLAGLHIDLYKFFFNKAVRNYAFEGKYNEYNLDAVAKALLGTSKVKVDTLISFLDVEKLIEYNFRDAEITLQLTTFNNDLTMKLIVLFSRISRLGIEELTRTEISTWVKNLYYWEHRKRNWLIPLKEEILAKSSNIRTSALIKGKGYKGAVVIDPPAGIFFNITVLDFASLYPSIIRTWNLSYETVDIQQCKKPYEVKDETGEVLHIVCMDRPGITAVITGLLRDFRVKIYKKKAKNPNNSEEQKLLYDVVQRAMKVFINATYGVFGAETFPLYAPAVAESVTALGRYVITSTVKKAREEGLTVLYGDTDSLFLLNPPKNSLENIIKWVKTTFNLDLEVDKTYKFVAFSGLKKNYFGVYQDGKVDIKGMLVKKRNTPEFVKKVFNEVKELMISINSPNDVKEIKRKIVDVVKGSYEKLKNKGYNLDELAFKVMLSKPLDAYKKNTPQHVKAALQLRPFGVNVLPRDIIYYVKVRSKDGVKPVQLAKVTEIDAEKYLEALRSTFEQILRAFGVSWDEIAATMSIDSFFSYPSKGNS

[4] = biological target: T4, hpol ι (Homo sapiens, UniProt Q9UNA4); assay: Gel-based primer extension assay; type: biochemical; conditions: 10 μM IAG-10, 10 nM hpol ι
T4 sequence (Q9UNA4 1-446): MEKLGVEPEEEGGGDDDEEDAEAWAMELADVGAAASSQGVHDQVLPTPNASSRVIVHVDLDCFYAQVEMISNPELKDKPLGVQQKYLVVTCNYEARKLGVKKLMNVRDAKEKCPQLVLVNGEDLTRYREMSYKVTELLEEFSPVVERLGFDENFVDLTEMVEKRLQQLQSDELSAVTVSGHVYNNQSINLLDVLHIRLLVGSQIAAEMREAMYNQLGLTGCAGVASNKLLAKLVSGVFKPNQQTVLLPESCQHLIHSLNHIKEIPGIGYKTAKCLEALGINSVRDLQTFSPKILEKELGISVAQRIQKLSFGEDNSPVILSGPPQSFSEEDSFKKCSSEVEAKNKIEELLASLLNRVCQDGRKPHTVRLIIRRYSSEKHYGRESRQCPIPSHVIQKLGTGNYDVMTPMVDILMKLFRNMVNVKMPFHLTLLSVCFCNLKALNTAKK

[5] = biological target: T5, hpol λ (Homo sapiens, UniProt Q9UGP5); assay: TAMRA strand-displacement selectivity assay, X-family pol; type: biochemical; conditions: 10 μM IAG-10, 10 nM hpol λ
T5 sequence (Q9UGP5 251-575 limits assumed): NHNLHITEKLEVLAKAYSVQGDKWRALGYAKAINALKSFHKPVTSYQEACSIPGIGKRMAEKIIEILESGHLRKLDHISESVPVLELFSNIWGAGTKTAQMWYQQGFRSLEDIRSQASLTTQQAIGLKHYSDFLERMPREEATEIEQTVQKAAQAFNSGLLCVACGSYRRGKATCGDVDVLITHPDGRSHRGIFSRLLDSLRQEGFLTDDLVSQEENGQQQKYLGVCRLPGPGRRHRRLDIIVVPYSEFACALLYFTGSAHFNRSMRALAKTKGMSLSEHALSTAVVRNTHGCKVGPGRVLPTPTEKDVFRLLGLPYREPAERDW

## Cl.[H]/N=C(\N)NN=Cc1cn(C(=O)c2cccc3ccccc23)c2ccc(Cl)cc12 [IAG-10, (E)-2-((1-(1-naphthoyl)-5-chloro-1H-indol-3-yl)-methylene)hydrazine-1-carboximidamide hydrochloride]
[1]; 10 μM IAG-10, 25 nM hpol κ
  polymerase activity in presence of compound: only hpol κ activity was inhibited
[1]; 40 μM compound, 1 nM hpol κ, 50 nM DNA, relative to DMSO control
  inhibition of enzyme activity in the initial screen: greatest inhibitory action
[1]; IC50, 0.1 nM hpol κ, 0.5 nM DNA, 95% CI in parentheses
  IC50: 0.72 µM
[1]; IC50, 0.2 nM hpol κ, 1 nM DNA, 95% CI in parentheses
  IC50: 1.1 µM
[1]; IC50, 0.2 nM hpol κ, 2.5 nM DNA, 95% CI in parentheses
  IC50: 1.4 µM
[1]; IC50, 0.5 nM hpol κ, 10 nM DNA, 95% CI in parentheses
  IC50: 8.9 µM
[1]; IC50, 1 nM hpol κ, 25 nM DNA, 95% CI in parentheses
  IC50: 8.9 µM
[1]; IC50, 1 nM hpol κ, 50 nM DNA, 100 μM dTTP, 1 mM MgCl2, 25 °C, mean n = 3
  IC50: 7.2 µM
[1]; initial reaction conditions (higher enzyme and DNA)
  specificity for hpol κ over η: ~ 2 fold
[1]; lower concentrations of enzyme and DNA
  specificity for hpol κ over η: ~ 30 fold
[2]
  polymerase activity in presence of compound: only hpol κ was inhibited
[3]
  polymerase activity in presence of compound: only hpol κ activity was inhibited
[4]
  polymerase activity in presence of compound: only hpol κ was inhibited
[5]
  polymerase activity in presence of compound: only hpol κ activity was inhibited
